The assay addresses T1, crosslinked smooth muscle actomyosin (chicken gizzard smooth muscle myosin subfragment-1 crosslinked to cardiac or skeletal actin) (Gallus gallus, UniProt P10587).
T1 construct: chicken gizzard smooth muscle myosin subfragment-1; from tissue; host or cells: chicken gizzard
Kind of assay: Lead optimization pyruvate kinase/horseradish peroxidase/pyruvate oxidase-coupled ATPase assay (compound dose response). The assay is classed as biochemical. The settings on record: read-out: IC50 Arithmetic Mean. In outline: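 The ATPase used chicken gizzard smooth muscle myosin S1 chemically crosslinked to cardiac or skeletal actin, titrated to a set hydrolysis rate. It was coupled via pyruvate kinase/pyruvate oxidase/HRP in 12 mM K-PIPES pH 7.00 (22 °C) with 0.15 mM ATP, 2 mM MgCl2, 100 mM KCl and 0.1 mM Amplex Red. Fluorescence was read at ex 480/em 615 nm, and IC50 came from a 4-parameter fit.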

As for `CCc1ccc(NC(=O)OCC2(C(=O)NCc3ccc(C)cc3C)CCN(C(=O)CN)CC2)cc1` [[(1-(2-aminoacetyl)-4-{N-[(2,4-dimethylphenyl)methyl]carbamoyl}(4-piperidyl))methoxy]-N-(4-ethylphenyl)carboxamide], the IC50 (usually the concentration that gives 50% inhibition) turned out to be 576 nM. In the case of `CCc1ccc(NC(=O)OCC2(C(=O)NCc3ccccc3Br)CCN(C(=O)CN)CC2)cc1` [[(1-(2-aminoacetyl)-4-{N-[(2-bromophenyl)methyl]carbamoyl}(4-piperidyl))methoxy]-N-(4-ethylphenyl)carboxamide], the concentration for half-maximal inhibition (IC50) is 146 nM. The same measure for `CCc1ccc(NC(=O)OCC2(C(=O)NCc3ccc(F)cc3Cl)CCN(C(=O)CN)CC2)cc1` [[(1-(2-aminoacetyl)-4-{N-[(2-chloro-4-fluorophenyl)methyl]carbamoyl}(4-piperidyl))methoxy]-N-(4-ethylphenyl)carboxamide]: 158 nM; for `CCc1ccc(NC(=O)OCC2(C(=O)NCc3ccccc3CC)CCN(C(=O)CN)CC2)cc1` [[(1-(2-aminoacetyl)-4-{N-[(2-ethylphenyl)methyl]carbamoyl}(4-piperidyl))methoxy]-N-(4-ethylphenyl)carboxamide]: 951 nM; for `CCc1ccc(NC(=O)OCC2(C(=O)NCc3cccnc3C)CCN(C(=O)CN)CC2)cc1` [[(1-(2-aminoacetyl)-4-{N-[(2-methyl(3-pyridyl))methyl]carbamoyl}(4-piperidyl))methoxy]-N-(4-ethylphenyl)carboxamide]: 9440 nM.

For `CCc1ccc(NC(=O)OCC2(C(=O)NCc3cccc(Cl)c3F)CCN(C(=O)CN)CC2)cc1` [[(1-(2-aminoacetyl)-4-{N-[(3-chloro-2-fluorophenyl)methyl]carbamoyl}(4-piperidyl))methoxy]-N-(4-ethylphenyl)carboxamide], the half-maximal inhibitory concentration (IC50) turned out to be 99 nM. As for `NCC(=O)N1CCC(COC(=O)Nc2ccc(C(F)(F)F)cc2)(C(=O)NCc2cccc(Cl)c2F)CC1` [[(1-(2-aminoacetyl)-4-{N-[(3-chloro-2-fluorophenyl)methyl]carbamoyl}(4-piperidyl))methoxy]-N-[4-(trifluoromethyl)phenyl]carboxamide], the half-maximal inhibitory concentration (IC50) was found to be 370 nM. For `CCc1ccc(NC(=O)OCC2(C(=O)NCc3cccc(Cl)c3C)CCN(C(=O)CN)CC2)cc1` [[(1-(2-aminoacetyl)-4-{N-[(3-chloro-2-methylphenyl)methyl]carbamoyl}(4-piperidyl))methoxy]-N-(4-ethylphenyl)carboxamide], the IC50 came to 83 nM. For `Cc1c(Cl)cccc1CNC(=O)C1(COC(=O)Nc2ccc(C(F)(F)F)cc2)CCN(C(=O)CN)CC1` [[(1-(2-aminoacetyl)-4-{N-[(3-chloro-2-methylphenyl)methyl]carbamoyl}(4-piperidyl))methoxy]-N-[4-(trifluoromethyl)phenyl]carboxamide], the 50% inhibitory concentration (IC50) is 179 nM. For `CCc1ccc(NC(=O)OCC2(C(=O)NCc3cccc(Cl)c3)CCN(C(=O)CN)CC2)cc1` [[(1-(2-aminoacetyl)-4-{N-[(3-chlorophenyl)methyl]carbamoyl}(4-piperidyl))methoxy]-N-(4-ethylphenyl)carboxamide], the half-inhibitory concentration (IC50) came out at 729 nM. On to `CCc1ccc(NC(=O)OCC2(C(=O)NCc3cccc(F)c3C)CCN(C(=O)CN)CC2)cc1` [[(1-(2-aminoacetyl)-4-{N-[(3-fluoro-2-methylphenyl)methyl]carbamoyl}(4-piperidyl))methoxy]-N-(4-ethylphenyl)carboxamide], for which the half-inhibitory concentration (IC50) came out at 81 nM. On to `Cc1c(F)cccc1CNC(=O)C1(COC(=O)Nc2ccc(C(F)(F)F)cc2)CCN(C(=O)CN)CC1` [[(1-(2-aminoacetyl)-4-{N-[(3-fluoro-2-methylphenyl)methyl]carbamoyl}(4-piperidyl))methoxy]-N-[4-(trifluoromethyl)phenyl]carboxamide], for which the concentration for half-maximal inhibition (IC50) was 412 nM. For `CCc1ccc(NC(=O)OCC2(C(=O)NCc3cccc(F)c3)CCN(C(=O)CN)CC2)cc1` [[(1-(2-aminoacetyl)-4-{N-[(3-fluorophenyl)methyl]carbamoyl}(4-piperidyl))methoxy]-N-(4-ethylphenyl)carboxamide], the IC50 came to 1030 nM.
